Data taken from patent US20200290950A1, “ALKAMIDE COMPOUNDS AND USES THEREOF” (NORTH CAROLINA STATE UNIVERSITY, priority 2017, published 2020).

Experiments:
[1] = target: T1, TRPA1 (Mus musculus, UniProt Q8BLA8); assay: Calcium response of DRG neurons to mustard (allyl isothiocyanate); assay type: cell-based; conditions: cultured DRG neurons, fluorescence microscopy
T1 construct: The receptors TRPA1 and TRPV1 are expressed on neurons; from tissue; host or cells: primary dorsal root ganglion neurons from mice
Excerpt: FIG. 11. Calcium response from DRG sensory neurons to alkamide of transient receptors. Mustard a TRPA1-receptor agonist activates DRG neurons in gray (A) and capsaicin, an agonist for TRPV1-receptors in the DRG neurons in red (B). Ligand A15 inhibits both TRPA1 and TRPV1 receptors activation in orange; however, 85Y a synthetic ligand only reduces the inhibition of TRPA1 but not TRPV1 receptors in blue. Total number of neurons (n)=135-145; p≤0.05.
Several different model systems were utilized for these experiments. In one model, dorsal root ganglia were obtained from mice and the neurons cultured in vitro. The neurons were then stimulated in the presence/absence of A15 and YM8-85 and the calcium responses monitored by fluorescence microscopy. In the second model, the alkamides were applied to mouse skin in mineral oil. The reactions of these mice to heat, cold, and tactile stimulation was then compared with mice that had not received treatment with A15. […] Alkamides were applied to sensitized animals and then ear swelling and bouts of scratching were monitored.
In vitro DRG neuron responses. […] Neurons were stimulated with mustard (allyl isothiocyanate) (A) an agonist for the receptor TRPA-1 or capsaicin (B) an agonist for the receptor TRPV-1 and calcium responses were measured in individual neurons by fluorescence microscopy. […]

[2] = TDI-induced ear swelling; assay type: in vivo, mouse
Excerpt: (§1) Several different model systems were utilized for these experiments. In one model, dorsal root ganglia were obtained from mice and the neurons cultured in vitro. The neurons were then stimulated in the presence/absence of A15 and YM8-85 and the calcium responses monitored by fluorescence microscopy. In the second model, the alkamides were applied to mouse skin in mineral oil. The reactions of these mice to heat, cold, and tactile stimulation was then compared with mice that had not received treatment with A15. In a third model, mice were sensitized to the chemical compound toluene-2,4-diisocyanate (TDI). TDI is an industrial chemical which causes hypersensitive skin lesions and itching in exposed humans and animals. The physiological response to TDI is complex involving type 2 T lymphocytes, cytokines, mast cells, and neurons. Alkamides were applied to sensitized animals and then ear swelling and bouts of scratching were monitored.
A15 and TDI induced hypersensitivity. Mice were sensitized to toluene-2,4-diisocyanate (TDI) via abdominal application. Subsequently, a hypersensitive response was induced in the ear by direct application of TDI and ear thickness measured as a sign of inflammation.

[3] = TDI-induced scratching bouts (itch); assay type: in vivo, mouse; conditions: higher dose 1.0%
Excerpt: as §1
The effects of A15 on TDI-induced itch. The itch response was also monitored in mice sensitized and treated with TDI. Treated mice were video recorded and the number of scratching bouts quantified by an observer.

[4] = tested on: RBL-2H3 cells; assay: β-Hexosaminidase release assay (Example 3); assay type: cell-based, rat
Procedure: FIGS. 21A-21D. The inhibition of degranulation is dependent on the length of the alkamide fatty acid chain. RBL-2H3 cells were plated overnight, stimulated with 1 μM A23187 (FIG. 21A) or 5 ng/mL DNP-BSA (FIG. 21B) for 1 h in the absence or presence of each compound. Graphs display the mean percent β-hex release. Data are presented as the mean of 4 experiments. Percent inhibition of degranulation of A23187 (FIG. 21C) or DNP-BSA (FIG. 21D) using data from A and B, respectively. *P<0.05, **P<0.01, ***P<0.001, one-way ANOVA with Dunnett's post hoc test compared to vehicle (A, B) or A15 (C, D).
RBL-2H3 cells (1.0×10^5 cells) were incubated with or without 0.1 μg/mL of IgE-DNP overnight in a 96 well plate at 37° C. with 5% CO2. The cells were washed with Tyrode's buffer and assayed with few modifications (Kuehn, Radinger, & Gilfillan, 2010). Briefly, IgE-DNP sensitized cells were stimulated 1 hour with 5 ng/mL of DNP-BSA in the absence or presence of each compound and incubated at 37° C. with 5% CO2. For experiments using only A23187 as the stimulant, cells were washed with Tyrode's buffer and stimulated 1 hour with 1 μM A23187 in the absence or presence of each compound and incubated at 37° C. with 5% CO2. The stimulated cells were centrifuged at 1200×g for 5 minutes. The supernatant or cell lysate (30 μL) was incubated with 3.4 mg/mL of p-NAG (10 μL) for 1 hour at 37° C. The reaction was terminated by addition of 0.2 M sodium carbonate (pH 10) and the absorbance was read at OD405 nm on a BioTek Synergy HT microplate reader. The total 3-hexosaminidase released from the cell was calculated as the difference between the OD of the supernatant and blank plus the difference between the OD of the lysate and blank. The percent β-hexosaminidase released from the cell was calculated as the difference between the OD of the supernatant and blank divided by the total β-hexosaminidase released from the cell multiplied by 100: ODsupernatant−ODblank/[(ODlysate−ODblank)+(ODsupernatant−ODblank)]*100.

[5] = tested on: RBL-2H3 cells; assay: Calcium assay, Fluo-4 (Example 3); assay type: cell-based, rat
Procedure: FIGS. 22A-22D. The alkamide fatty acid is necessary for inhibition of calcium influx. RBL-2H3 cells were plated overnight, incubated with Fluo-4 AM for 1 h, stimulated by 1 μM A23187 (FIG. 22A) or 5 ng/mL DNP-BSA (FIG. 22B) in the absence or presence of each alkamide, and fluorescence was read for 2 mins every 5 secs. Data are presented as the mean change in RFU of 4 experiments. Percent inhibition of calcium influx was calculated for A23187 (FIG. 22C) and DNP-BSA (FIG. 22D) stimulated cells at 2 mins. *P<0.05, **P<0.01, and ***P<0.001 one-way ANOVA with Dunnett's post hoc test compared to A15.
RBL-2H3 cells (1.0×10^5 cells) were incubated overnight in a 96 well black-wall clear bottom plate with or without IgE-DNP (0.1 μg/mL) at 37° C. with 5% CO2. The assay was performed using the Fluo-4 Direct™ Calcium Assay Kit according to the manufacturer's instruction. Briefly, cells were incubated with the Fluo-4 Direct calcium reagent loading solution for 30 minutes at 37° C. with 5% CO2 then 30 mins at room temperature. Prior to stimulation, the well baseline fluorescence was measured every 5 seconds over 1 minute using a BioTek Synergy HT microplate reader with 485/20 nm excitation and 528/20 nm emission filters. Cells were stimulated with 1 μM A23187 or 5 ng/mL DNP (IgE-DNP) in the absence or presence of each compound, and the fluorescence was measured every 5 seconds over 2 minutes. The change in fluorescence (ΔRT) was calculated as the sample fluorescence minus the baseline fluorescence for each well.

[6] = tested on: RBL-2H3 cells; assay: TNF-α ELISA, 18 hrs (Example 3); assay type: cell-based, rat; conditions: 1 μM A23187, 18 hours
Procedure: FIGS. 25A-25B. […] RBL-2H3 cells were plated overnight and stimulated with 1 μM A23187 in the absence or presence of each alkamide for 18 h. Culture supernatants were analyzed for TNF-α levels by ELISA and experiments were performed in triplicate (FIG. 25A). Percent inhibition of TNF-α secretion for each alkamide listed in FIG. 25B. *P<0.05, **P<0.01, ***P<0.001, one-way ANOVA with Dunnett's post hoc test compared to vehicle (FIG. 25A) or A15 (FIG. 25B).
RBL-2H3 cells (1.0×10^5 cells) were incubated overnight in a 24 well plate at 37° C. with 5% CO2. Cells were washed with 1×PBS and stimulated with 1 μM A23187 for 18 hrs in the absence or presence of each compound. The cells were centrifuged (1200×g, 5 min) and the supernatants were collected. The concentration of TNF-α in the supernatants were determined using the TNF-α ELISA kit.

T1 sequence (Q8BLA8 whole entry): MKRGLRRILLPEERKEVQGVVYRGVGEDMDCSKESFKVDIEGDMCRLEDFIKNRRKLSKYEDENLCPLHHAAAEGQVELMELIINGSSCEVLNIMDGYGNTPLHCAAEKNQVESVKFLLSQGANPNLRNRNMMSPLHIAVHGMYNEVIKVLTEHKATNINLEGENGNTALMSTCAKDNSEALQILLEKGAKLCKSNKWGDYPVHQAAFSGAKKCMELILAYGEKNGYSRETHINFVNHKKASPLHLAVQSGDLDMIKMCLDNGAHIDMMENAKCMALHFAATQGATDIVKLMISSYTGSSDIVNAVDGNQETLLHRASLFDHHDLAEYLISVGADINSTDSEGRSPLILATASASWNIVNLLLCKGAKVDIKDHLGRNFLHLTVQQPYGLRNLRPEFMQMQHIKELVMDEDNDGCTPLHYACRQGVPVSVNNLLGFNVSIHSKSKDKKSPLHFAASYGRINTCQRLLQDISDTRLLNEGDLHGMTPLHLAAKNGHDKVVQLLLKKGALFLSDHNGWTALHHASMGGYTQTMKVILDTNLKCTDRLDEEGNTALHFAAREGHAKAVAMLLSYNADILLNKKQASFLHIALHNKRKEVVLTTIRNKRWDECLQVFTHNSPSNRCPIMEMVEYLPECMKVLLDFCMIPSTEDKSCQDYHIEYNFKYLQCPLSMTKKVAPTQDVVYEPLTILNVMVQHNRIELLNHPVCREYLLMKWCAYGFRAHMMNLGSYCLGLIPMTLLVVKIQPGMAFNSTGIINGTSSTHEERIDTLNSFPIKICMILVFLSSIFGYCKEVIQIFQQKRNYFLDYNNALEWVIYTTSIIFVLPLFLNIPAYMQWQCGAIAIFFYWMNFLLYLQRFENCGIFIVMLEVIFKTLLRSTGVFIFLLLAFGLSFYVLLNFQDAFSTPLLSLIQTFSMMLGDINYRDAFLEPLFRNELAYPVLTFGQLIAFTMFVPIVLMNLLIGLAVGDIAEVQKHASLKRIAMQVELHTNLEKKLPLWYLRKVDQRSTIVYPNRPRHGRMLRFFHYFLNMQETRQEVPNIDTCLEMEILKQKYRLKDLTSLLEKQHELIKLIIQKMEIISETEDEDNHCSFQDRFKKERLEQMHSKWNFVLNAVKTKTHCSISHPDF

In the case of `CCCCCCCC(=O)NCC(C)C` [YM8-85, N-Isobutyloctanamide], the “DRG neuron calcium response to mustard (TRPA1 agonist)” value [1] is reported as “inhibit”, the “TDI ear swelling (ear thickness)” value ([2]; 0.1%, first experiment (FIG. 13A)) is reported as “significant responses were not seen” and the “TDI ear swelling (ear thickness)” value ([2]; 0.1%, repeated experiment (FIG. 13B)) is reported as “neither A15 nor YM8-85 at 0.1% produced significant inhibition”. The “TDI ear swelling (ear thickness)” value ([2]; 1%, first experiment (FIG. 13A)) was “significant responses were not seen”, the “scratching bouts in TDI treated mice” value [3] was “significant inhibition of scratching” and the “percent inhibition of degranulation” value ([4]; 5 ng/mL DNP-BSA, 1 hour) was 60%. The “percent inhibition of degranulation” value ([4]; 1 μM A23187, 1 hour) was 64%, the “percent inhibition of calcium influx” value ([5]; 5 ng/mL DNP-BSA, at 2 minutes) was 49% and the “percent inhibition of calcium influx” value ([5]; 1 μM A23187, at 2 minutes) was 91%. The “percent inhibition of TNF-α secretion” value [6] was 43%.
